For data set [1] the following is noted: ref Ferreiro et al. 2002; cited from earlier work.
For another data set, the system named is Salmonella typhimurium. The conditions noted are these: ref Rosenkranz Jr et al. 1976; cited from earlier work.
Data set [2] has as its system Bloodstream trypomastigotes of T. cruzi (Y strain). As to the kind of experiment: In vitro trypanocidal assay. Format: cell-based. Conditions: Trypanosoma cruzi, 24 h, read-out: IC50/24 h.
Data set [3] deals with DNA damage in human whole blood cells. As to the kind of experiment: In vitro alkaline single cell gel electrophoresis. In kind it is cell-based. The conditions noted are these: positive control, 160 µM.

Turning to `Cc1ncc([N+](=O)[O-])n1CC(O)CCl` (centres unmarked) [Compound 4, ornidazole], the “Mutagenicity (in words)” value in data set [1] was “known to be a mutagenic agent”.

As to `O=C(Cn1ccnc1[N+](=O)[O-])NCc1ccccc1` [Compound 8, benznidazole], the Ames test result with Salmonella typhimurium is reported as “positive”. In data set [2], the IC50 came to 9.7 ± 2.4 µM.

For the molecule `COS(C)(=O)=O` [MMS, Methyl methane-sulfonate], the “TAU value (total DNA damage score)” value in data set [3] is 454.3 ± 9.2 TAU; in data set [3] (listed as methyl methane-sulfonate), “MI: mutagenicity inde; NA: not applicable; TAU: total arbitrary units for the positive control, methyl methane-sulfonate value was 454.3 ± 9.2”.

Source of the values: paper PMC4501412 (Memórias do Instituto Oswaldo Cruz, 2015).
